Data on 81 compounds can be found in PubChem BioAssay AID602210 (Sanford-Burnham Center for Chemical Genomics, 2012).

Active and inactive are the calls of the source. The rule behind the calls is not given here. Some results are limits rather than exact numbers.

This assay in a line: H9c2 cardiomyoblast viability modulators under 2-DG – cell-based, ATPlite luminescence, rat, set 2, myocardial damage modulator project, dose response (AID 602210). The note with it: H9c2 rat cardiomyoblasts, 2-deoxyglucose-induced death, 2 h. (Cellular ATP, detected with luciferase, serves as a proxy for viable cell number.)
One may read the IC50 as the concentration at which inhibition is half-maximal. Consider `COc1ccccc1-c1cc(NC(C)=O)c2ncc(-c3cccc(C(C)=O)c3)n2c1`, for which the IC50 was > 79 µM (inactive). For `O=c1c2ccccc2nc(CSc2ncnc3nc[nH]c23)n1-c1ccc(Cl)c(Cl)c1` the value was 14.7 µM (inactive); for `CC(=O)NCCNc1nc2c(-c3ccccc3)nnn2c2ccccc12`, 13.2 µM (inactive); for `CCOC(=O)c1c(C)[nH]c(O)c1C=Nc1ccc(Cl)cc1`, 46.7 µM (inactive). On to `CCOC(=O)c1nc(Nc2ccc(C(=O)OC)cc2)c2ccccc2n1`, for which the IC50 was > 79 µM (inactive).

With `O=C1c2ccccc2C(=O)N1CCCCSc1nc2ccccc2c(=O)n1CCCN1CCOCC1`, the IC50 was > 79 µM (inactive).

As for `CC(C)(C)NC(=O)c1cccc(NC(=O)c2ccc(NC(=O)c3ccco3)cc2)c1`, the IC50 was 18.9 µM (inactive). As to `Nc1c(C(=O)N/N=C/c2cccnc2)oc2nc(-c3ccco3)cc(-c3ccco3)c12`, the IC50 is 1.63 µM. As to `COc1cc2[nH]c(=O)n3nc(-c4ccccc4)nc3c2cc1OC`, the IC50 was 12.1 µM (inactive). In the case of `CCOc1ccccc1N1CC(O)=C(c2nc3ccccc3s2)C1=N`, the IC50 was 13.8 µM (inactive).

In the case of `Cc1ccc2nc(-c3ccccc3)cc(C(=O)NNC(=O)c3csc(N4CCOCC4)n3)c2c1`, the IC50 was 12.4 µM (inactive). As for `COC(=O)c1cc(NC(=O)c2cc3ccccc3o2)cc(C(=O)OC)c1`, the IC50 was 23.9 µM (inactive). On to `COc1ccc(-c2nn3c(-c4ccco4)nnc3s2)cc1OC`, for which the IC50 is 28.2 µM (inactive).

In the case of `CCC(C)N1C(=O)S/C(=C/c2ccc3c(c2)n(C)c(=O)n3C)C1=O` (stereo unspecified), the IC50 is > 79 µM (inactive). On to `CC(=O)Nc1ccc(S(=O)(=O)N(Cc2cccnc2)Cc2cc3ccccc3[nH]c2=O)cc1`, for which the IC50 is 5.82 µM. Consider `COc1ccc(-c2cnc3c(NC=O)cc(-c4cccc(NS(C)(=O)=O)c4)cn23)cc1OC`, for which the IC50 was 13.4 µM (inactive). With `COc1cccc(-c2cnc3c(NC(C)=O)cc(-c4cccc(NS(C)(=O)=O)c4)cn23)c1`, the IC50 was 15.4 µM (inactive).

Take `COc1ccc(-n2nc(C(=O)NCC(=O)Nc3cc(OC)c(OC)c(OC)c3)c3ccccc3c2=O)cc1Cl`: the IC50 was 7.79 µM. Next, `C[C@H](CO)N1C[C@H](C)[C@@H](CN(C)S(=O)(=O)c2cccs2)Oc2ccc(NC(=O)Nc3ccccc3)cc2C1=O`: > 79 µM (inactive). For `COc1ccc(C(C(=O)NCc2ccccc2)N(Cc2cccs2)C(=O)c2cnccn2)cc1` (stereo unspecified) the value was 23 µM (inactive); for `CC(=NO)C1CCC2C3CCC4CC(=NO)CCC4(C)C3C(C)(O)CC12C` (stereo unspecified), 22 µM (inactive); for `COC(=O)c1ccccc1NC(=O)c1nc2nc(C)cc(C)n2n1`, 67.2 µM (inactive). In the case of `CCC(=O)Nc1cccc(-c2nnc(-c3cccc(NC(=O)CC)c3)o2)c1`, the IC50 is > 79 µM (inactive). With `CC(C)(C)OC(=O)NCC12C=CC(O1)C1C(=O)N(Cc3ccccc3)C(=O)C12` (stereo unspecified), the IC50 was 21.5 µM (inactive). Turning to `Cn1c2ccccc2c2cc(/C=N/NC(=O)c3cc(O)ccc3O)ccc21`, the IC50 was > 79 µM (inactive). Take `CC(=O)c1ccc(-c2[nH]c3ccccc3c2CCN2C(=O)c3ccccc3C2=O)cc1`: the IC50 is > 79 µM (inactive).

On to `COc1cc(-c2cc(C(=O)Nc3cccc(C(C)=O)c3)c3ccccc3n2)cc(OC)c1OC`, for which the IC50 was 9.8 µM.

On to `COc1ccc(CCNC(=O)c2cc3c(C)nccc3[nH]c2=O)cc1OC`, for which the IC50 was 20.7 µM (inactive). Regarding `NC(=O)c1nsc(C(=O)N(c2ccccc2)C(C(=O)NCc2ccc(F)cc2)c2ccc(O)cc2)c1N` (stereo unspecified), the IC50 is 9.29 µM. Turning to `COc1ccc(NC(=O)c2cc3c(=O)n(C)c4ccccc4c3n2C)cc1OC`, the IC50 was > 79 µM (inactive).

Turning to `Cc1ncc(CO)c2cc(C(=O)Nc3ccccc3Cl)c(=Nc3cccc(C(N)=O)c3)oc12`, the IC50 was 2.43 µM.

`CCOC(=O)C1CCN(c2cc3c(cc2NC(=O)c2ccccc2Cl)n(C)c(=O)n3C)CC1`: the IC50 is 15.2 µM (inactive).

On to `COc1cc(-c2cc(C(=O)OCC(=O)NC3CC3)c3ccccc3n2)cc(OC)c1OC`, for which the IC50 was 13.2 µM (inactive). Regarding `CC1(C)Cc2c(c(N3CCOCC3)nc3sc4c(NN)ncnc4c23)CS1`, the IC50 is > 79 µM (inactive). Regarding `O=C(Cn1nc(C(=O)O)c2ccccc2c1=O)c1c[nH]c2ccccc12`, the IC50 is 40.1 µM (inactive). As to `CC(=O)Nc1cccc(-c2cc(NC(C)=O)c3ncc(-c4cccc(C(C)=O)c4)n3c2)c1`, the IC50 is 13.1 µM (inactive). As for `CCOC(=O)C1=C(C)N=c2s/c(=C\c3ccncc3)c(=O)n2C1c1ccc2c(c1)OCO2` (stereo unspecified), the IC50 was 30.3 µM (inactive). For the compound `COc1ccc(Nc2nnc(-c3ccc(O)cc3)c3ccccc23)cc1C(N)=O`, the IC50 is > 79 µM (inactive). With `Cc1cccc(NC(=O)c2nc[nH]c2C(=O)NCCCCCCNC(=O)c2[nH]cnc2C(=O)Nc2cccc(C)c2)c1`, the IC50 was > 79 µM (inactive). For `Cc1nc(NC(=O)c2cc3c(C)nn(-c4ccccc4)c3s2)sc1C(=O)Nc1ccccc1` the value was > 79 µM (inactive). For `O=C(CN(c1ccc2c(c1)OCCO2)S(=O)(=O)c1ccccc1)Nc1ccc2c(c1)OCO2`, the IC50 is 14.7 µM (inactive). For `COc1ccc(-c2ccc3c(c2)S(=O)(=O)c2cccc(C(=O)NC[C@@H]4CCCO4)c2C3=O)cc1OC` the value was 13.4 µM (inactive). With `COc1cccc(NC(=O)c2oc3ccc(S(=O)(=O)N4CCOCC4)cc3c2C)c1`, the IC50 is 19.5 µM (inactive). As for `CCN(CC)S(=O)(=O)c1ccc(N2CCOCC2)c(NC(=O)c2cc(-c3ccccn3)nc3ccccc23)c1`, the IC50 was 4.51 µM. Take `CC1Nc2ncnc(N3CCN(c4ccccc4)CC3)c2N(Cc2ccc(Br)cc2)C1=O` (stereo unspecified): the IC50 is > 79 µM (inactive).

For `COc1cc(/C=c2\s/c(=C(/C#N)C(=O)N3CCCC3)n(-c3ccccc3)c2=O)ccc1O`, the IC50 is > 79 µM (inactive). `CCN(CC(=O)Nc1ccc(OC)cc1)C(=O)c1cc(-c2cccs2)nn1-c1ccccc1`: the IC50 is 7.55 µM. As for `CCc1nnc(NC(=O)CCC(=O)N2CCN(C3c4ccccc4-c4ccccc43)CC2)s1`, the IC50 is 29.1 µM (inactive). For the compound `CCOCCn1ccc2c(OCC(=O)Nc3cc(OC)ccc3OC)cccc2c1=O`, the IC50 is > 79 µM (inactive). Turning to `CCCCNC(=O)c1cn(-c2ccc(OCC)cc2)c(=O)c2cc(OC)c(OC)cc12`, the IC50 was 39.2 µM (inactive). On to `COc1cc(OC)c(-c2nn3c(-c4ccco4)nnc3s2)cc1OC`, for which the IC50 was 9.15 µM. On to `COc1ccc(-c2cc(C(=O)N(C)Cc3ccc(OC)c(OC)c3OC)c3ccccc3n2)cc1OC`, for which the IC50 was 10.2 µM (inactive).

Turning to `Cn1c(=O)n(CCc2ccccc2)c(=O)c2c1nc1n2CCCN1Cc1ccccc1`, the IC50 was 14.5 µM (inactive). Turning to `CC(=O)Nc1ccc(C(=O)N/N=C/c2ccccc2OC(=O)c2ccc(Cl)cc2)cc1`, the IC50 is 14.7 µM (inactive).

Consider `NS(=O)(=O)c1ccc(N=Cc2c(O)n(-c3nccs3)c(=O)c3ccccc23)cc1`, for which the IC50 was 37.2 µM (inactive). With `CNC(=O)COC(=O)/C=C/c1cn(-c2ccccc2)nc1-c1ccc(C)o1`, the IC50 is 14.6 µM (inactive). On to `COc1cc2c(C#CCCO)c(-c3ccsc3)oc(=O)c2cc1OC`, for which the IC50 is 6.34 µM. Consider `CCc1nc(N2CCN(C(=O)c3ccco3)CC2)c2oc3ccccc3c2n1`, for which the IC50 was 24.7 µM (inactive). For `Cc1cccc(NC(=O)c2cc(-c3ccco3)nc3ccccc23)n1`, the IC50 is 12.2 µM (inactive).

On to `COc1ccc(-c2oc(=O)c3cc(OC)c(OC)cc3c2C#CCCO)cc1`, for which the IC50 is 21.7 µM (inactive). Consider `COc1cccc(-c2cnc3c(NC=O)cc(-c4ccc(O)c(OC)c4)cn23)c1`, for which the IC50 is 8.51 µM.

On to `CC(C)c1ccccc1NC(=O)COC(=O)c1c2c(nc3ccccc13)CCN(Cc1ccccc1)C2`, for which the IC50 was 7.98 µM. Turning to `Cc1[nH]c2ccccc2c1/C=N/NC(=O)c1cc(-c2ccccc2)n[nH]1`, the concentration for half-maximal inhibition (IC50) is 8.98 µM. For `O=C(NCc1ccco1)c1cc(-c2cccnc2)nc2ccc(Cl)cc12` the value was > 79 µM (inactive); for `O=C(COc1cccc(NC(=O)c2cccc([N+](=O)[O-])c2)c1)c1ccc(F)cc1`, 11.2 µM (inactive); for `COc1ccc(-c2nnc(-c3cc(OC)c(OC)c(OC)c3)o2)cc1OC`, 15.9 µM (inactive). Turning to `CCCCn1nc(NC(=O)c2cccs2)c2cc3cc(OC)ccc3nc21`, the IC50 is > 79 µM (inactive).

Take `CCOC(=O)C1=C(CC)Nc2ccccc2N=C1NC(=O)c1ccc(S(=O)(=O)N(C)C)cc1`: the IC50 was > 79 µM (inactive). For the compound `O=C(c1cc2nc(-c3ccccc3)cc(-c3ccccc3)n2n1)N1CCN(C(=O)c2ccco2)CC1`, the IC50 was 10.3 µM (inactive). Regarding `CC1(C)CC(=O)C2=C(C1)N(CCN1CCOCC1)C1=C(C(=O)CC(C)(C)C1)C2c1ccc(Cl)cc1`, the IC50 was 39.1 µM (inactive).

Regarding `C=C1C(C)C2C(Cc3ccccc3)NC(=O)C23OC(=O)/C=C/C(O)CCCC(C)C/C=C/C3C1O` (stereo unspecified), the IC50 is 0.95 µM. Turning to `Cn1nc(C(=O)Nc2nc(-c3ccccn3)cs2)c2ccccc2c1=O`, the IC50 was > 79 µM (inactive).

With `COc1cc(C(=O)Nc2cccc(-c3nnc(-c4ccco4)o3)c2)ccc1OC(C)=O`, the IC50 was 9.42 µM. Next, `COc1cc(-c2cnc3c(NC=O)cc(-c4cccnc4)cn23)cc(OC)c1OC`: 36.2 µM (inactive); `COc1ccc(/C=N/NC(=O)c2ccc(COc3cccc4cccnc34)cc2)cc1OC`: 12.1 µM (inactive); `Brc1ccc(-c2nn3c(-c4ccccn4)nnc3s2)o1`: 42.3 µM (inactive). As to `COc1cc(/C=N/NC(=O)NC23CC4CC(CC(C4)C2)C3)ccc1OCC(N)=O`, the IC50 was 7.76 µM. Consider `O=C(NC1CCCCC1)C(c1ccc2ncccc2c1)N(Cc1ccccc1)C(=O)c1ccc2c(c1)OCCO2` (stereo unspecified), for which the IC50 was 29.4 µM (inactive).

As to `CCCNC(=O)c1ccc(N2CCC3(CC2)CC(c2ccccc2)=NO3)c(NC(=O)c2ccco2)c1`, the IC50 is 8.75 µM.

Take `CCOCc1c(C(=O)NC2=Nc3ccccc3NC(CC)=C2C(=O)OCC)oc2ccccc12`: the IC50 was 4.85 µM.

Consider `COC(=O)c1cc2ccccn2c2c(C(=O)OC)c(C(=O)OC)cc1-2`, for which the IC50 was 5.26 µM.
